± gives the expanded uncertainty stated by the source.
Assay: xn = mol fraction of the nth substance listed
Details: 101 kPa, Liquid

CCn1cc[n+](C)c1.F[B-](F)(F)F [1-ethyl-3-methylimidazolium tetrafluoroborate] + O
Details | mass density [kg/m3] | viscosity [mPa·s]
293.15 K, x2 = 0 | 1340.7 ± 50 | 45.29 ± 2.9
293.15 K, x2 = 0.0995 | 1336.1 ± 50 | 34.43 ± 2.3
293.15 K, x2 = 0.2062 | 1330 ± 50 | 25.1 ± 1.7
293.15 K, x2 = 0.3047 | 1322.9 ± 50 | 19.25 ± 1.3
293.15 K, x2 = 0.4034 | 1313.4 ± 50 | 13.76 ± 0.98
293.15 K, x2 = 0.5034 | 1299.8 ± 50 | 10.36 ± 0.77
293.15 K, x2 = 0.5998 | 1284.2 ± 50 | 7.892 ± 0.61
293.15 K, x2 = 0.7005 | 1262 ± 50 | 5.797 ± 0.48
293.15 K, x2 = 0.8011 | 1225.9 ± 50 | 4.127 ± 0.36
293.15 K, x2 = 0.9027 | 1157.4 ± 50 | 3.035 ± 0.27
298.15 K, x2 = 0 | 1336.7 ± 50 | 37.19 ± 2.4
298.15 K, x2 = 0.0995 | 1332.1 ± 50 | 29.02 ± 1.9
298.15 K, x2 = 0.2062 | 1326 ± 50 | 21.01 ± 1.4
298.15 K, x2 = 0.3047 | 1318.9 ± 50 | 15.96 ± 1.1
298.15 K, x2 = 0.4034 | 1309.5 ± 50 | 11.45 ± 0.84
298.15 K, x2 = 0.5034 | 1296 ± 50 | 8.597 ± 0.66
298.15 K, x2 = 0.5998 | 1280.6 ± 50 | 6.975 ± 0.56
298.15 K, x2 = 0.7005 | 1258.4 ± 50 | 4.822 ± 0.42
298.15 K, x2 = 0.8011 | 1222.3 ± 50 | 3.499 ± 0.31
298.15 K, x2 = 0.9027 | 1154.2 ± 50 | 2.584 ± 0.23
303.15 K, x2 = 0 | 1332.9 ± 50 | 31.36 ± 2.1
303.15 K, x2 = 0.0995 | 1328.3 ± 50 | 24.8 ± 1.7
303.15 K, x2 = 0.2062 | 1322.2 ± 50 | 17.9 ± 1.2
303.15 K, x2 = 0.3047 | 1315.2 ± 50 | 13.58 ± 0.97
303.15 K, x2 = 0.4034 | 1305.8 ± 50 | 9.674 ± 0.72
303.15 K, x2 = 0.5034 | 1292.3 ± 50 | 7.384 ± 0.58
303.15 K, x2 = 0.5998 | 1276.9 ± 50 | 5.492 ± 0.47
303.15 K, x2 = 0.7005 | 1254.8 ± 50 | 3.896 ± 0.34
303.15 K, x2 = 0.8011 | 1218.7 ± 50 | 2.962 ± 0.27
303.15 K, x2 = 0.9027 | 1151.1 ± 50 | 2.189 ± 0.2
308.15 K, x2 = 0 | 1329.6 ± 50 | 25.56 ± 1.7
308.15 K, x2 = 0.0995 | 1324.9 ± 50 | 20.53 ± 1.4
308.15 K, x2 = 0.2062 | 1318.9 ± 50 | 14.58 ± 1
308.15 K, x2 = 0.3047 | 1311.9 ± 50 | 10.93 ± 0.8
308.15 K, x2 = 0.4034 | 1302.5 ± 50 | 8.187 ± 0.63
308.15 K, x2 = 0.5034 | 1288.9 ± 50 | 6.409 ± 0.52
308.15 K, x2 = 0.5998 | 1273.5 ± 50 | 4.707 ± 0.41
308.15 K, x2 = 0.7005 | 1251.4 ± 50 | 3.531 ± 0.31
308.15 K, x2 = 0.8011 | 1215.4 ± 50 | 2.555 ± 0.23
308.15 K, x2 = 0.9027 | 1148 ± 50 | 1.898 ± 0.17
313.15 K, x2 = 0 | 1325.9 ± 50 | 21.54 ± 1.5
313.15 K, x2 = 0.0995 | 1321.2 ± 50 | 17.96 ± 1.2
313.15 K, x2 = 0.2062 | 1315.2 ± 50 | 12.68 ± 0.91
313.15 K, x2 = 0.3047 | 1308.1 ± 50 | 9.634 ± 0.72
313.15 K, x2 = 0.4034 | 1298.7 ± 50 | 7.165 ± 0.57
313.15 K, x2 = 0.5034 | 1285.3 ± 50 | 5.465 ± 0.46
313.15 K, x2 = 0.5998 | 1269.7 ± 50 | 4.159 ± 0.36
313.15 K, x2 = 0.7005 | 1247.5 ± 50 | 3.133 ± 0.28
313.15 K, x2 = 0.8011 | 1211.8 ± 50 | 2.267 ± 0.21
313.15 K, x2 = 0.9027 | 1145 ± 50 | 1.689 ± 0.16
318.15 K, x2 = 0 | 1322.2 ± 50 | 18.84 ± 1.3
318.15 K, x2 = 0.0995 | 1317.6 ± 50 | 15.93 ± 1.1
318.15 K, x2 = 0.2062 | 1311.6 ± 50 | 11.16 ± 0.82
318.15 K, x2 = 0.3047 | 1304.5 ± 50 | 8.324 ± 0.64
318.15 K, x2 = 0.4034 | 1295 ± 50 | 6.357 ± 0.52
318.15 K, x2 = 0.5034 | 1281.6 ± 50 | 4.979 ± 0.43
318.15 K, x2 = 0.5998 | 1266 ± 50 | 3.63 ± 0.32
318.15 K, x2 = 0.7005 | 1243.9 ± 50 | 2.584 ± 0.23
318.15 K, x2 = 0.8011 | 1208.2 ± 50 | 2.044 ± 0.19
318.15 K, x2 = 0.9027 | 1141.8 ± 50 | 1.53 ± 0.14
323.15 K, x2 = 0 | 1319.5 ± 50 | 15.9 ± 1.1
323.15 K, x2 = 0.0995 | 1314.8 ± 50 | 13.74 ± 0.98
323.15 K, x2 = 0.2062 | 1308.8 ± 50 | 9.797 ± 0.73
323.15 K, x2 = 0.3047 | 1301.6 ± 50 | 7.47 ± 0.59
323.15 K, x2 = 0.4034 | 1292 ± 50 | 5.692 ± 0.48
323.15 K, x2 = 0.5034 | 1278.6 ± 50 | 4.522 ± 0.4
323.15 K, x2 = 0.5998 | 1263.1 ± 50 | 3.215 ± 0.29
323.15 K, x2 = 0.7005 | 1240.7 ± 50 | 2.512 ± 0.23
323.15 K, x2 = 0.8011 | 1205 ± 50 | 1.904 ± 0.18
323.15 K, x2 = 0.9027 | 1138.5 ± 50 | 1.439 ± 0.14

Source: the NIST ThermoML archive (doi:10.1021/je030191w)
